From patent US20040023314A1, “Mutant fibronectin and tumor metastasis” (Baylor College of Medicine, priority 2002, published 2004)

Test system: 1143 mel tumor cells
Test: Migration assay (matrigel)
Type: cell-based, human
Conditions: 1143 mel cells stably expressing the construct, 48 h
Method: 2.5×10^4 1143 mel tumor cells and transfected tumor cells were seeded into the upper chamber with 0.75 ml of RPMI-1640 serum-free medium in BIOCOAT […] Cells (Becton Dickinson, San Jose, Calif.). The bottom chamber contained 0.75 ml of RPMI-1640 serum-free medium (control medium) or 0.75 ml of RPMI-1640/10% FCS (complete medium). After incubation at 37° C. and 5% CO2 for 48 h, Cells in the lower chambers were fixed in 4% formaldehyde in PBS at room temperature for 20 min, stained with crystal violet, and examined and counted from four different fields under a compound microscope.
The migratory ability of these cell lines expressing wild type or mutant FN was further evaluated. […] To rule out clonal variation, similar experiments were repeated with four sets of independent tumor cell clones expressing either wild-type, mutant FN or empty vector. […] The P-value for significant difference is 0.0007 among the two comparison groups of cell clones expressing mutant FN and other cell clones expressing either wild-type FN, empty vector. There were no statistically significant differences among groups of parental 1143 mel and its derivative clones expressing wild-type or empty vector.

Substance | migration from chamber with control medium to chamber with complete medium
mutant FN: mutated fibronectin with Glu to Lys substitution at position 2053 | enhanced migration ability
wild-type FN: wild-type fibronectin | little or no migration
